Test results as given in patent US20150174095A1, “PHARMACEUTICAL COMPOSITIONS FOR THE TREATMENT OF VISUAL SYSTEM DISORDERS” (Allergan, Inc., priority 2013, published 2015).

How the values were obtained:
human ASCT1 [1] = target: T1, human ASCT1 (Homo sapiens, UniProt P43007); assay: Whole cell patch-clamp transport currents in HEK cells expressing human ASCT1; assay type: cell-based; settings: for effect on substrate-evoked inward current: HEK ASCT1, with 0.3 mM L-serine; for current in the absence of applied substrate: HEK ASCT1, without L-serine
T1 construct: expressed in transfected cells; host or cells: HEK293 cells stably expressing ASCT1
T1 sequence (P43007 1-532): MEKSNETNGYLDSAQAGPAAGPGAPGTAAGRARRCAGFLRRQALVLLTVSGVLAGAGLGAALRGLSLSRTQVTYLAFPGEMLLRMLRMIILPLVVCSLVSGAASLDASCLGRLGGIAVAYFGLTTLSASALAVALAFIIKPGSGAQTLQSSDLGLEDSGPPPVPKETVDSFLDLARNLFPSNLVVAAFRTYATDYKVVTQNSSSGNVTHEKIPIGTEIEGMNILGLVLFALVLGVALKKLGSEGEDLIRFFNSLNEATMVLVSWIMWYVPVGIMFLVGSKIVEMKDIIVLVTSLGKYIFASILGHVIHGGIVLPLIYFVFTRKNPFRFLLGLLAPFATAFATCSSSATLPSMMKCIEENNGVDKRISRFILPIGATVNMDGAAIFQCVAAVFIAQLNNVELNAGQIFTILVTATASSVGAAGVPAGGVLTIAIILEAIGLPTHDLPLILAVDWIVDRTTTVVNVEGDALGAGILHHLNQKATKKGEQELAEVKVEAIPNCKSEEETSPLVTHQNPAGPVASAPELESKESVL
Experimental: (§1) Patch-Clamp Recording in HEK 293 Cells (FIGS. 1A, 1B, 2A and 2B):
(§2) Transport currents were recorded in human embryonic kidney (HEK) cells expressing human ASCT1 or ASCT2 transporter using whole cell patch-clamp. Extracellular solution contains: 140 mM NaCl, 2.0 mM MgCl2, 2.0 CaCl2, 10 mM HEPES, pH 7.4. The recording pipettes were filled with ICM containing: 130 mM NaSCN, 10 mM EGTA, 2 mM MgCl2, 10 mM HEPES, 10 mM L-alanine pH 7.3. The inhibitory effects of compounds were measured without/with 300 μM L-serine and normalized to these by 4-hydroxy-phenyglycine (100%).

human ASCT1 [2] = target: T1, human ASCT1; assay: [3H]L-serine transport into HEK cells expressing recombinant human ASCT1; assay type: cell-based; settings: inhibition of [3H]L-serine transport, HEK cells with human ASCT1, n of 3-4; read-out: HEK1A4 ASCT1 IC50
Experimental: (§3) Cell-based assays: the transport of [^3H]L- or D-serine was measured in primary cultures of rat hippocampal astrocytes or in human embryonic kidney (HEK) cells expressing ASCT transporter sub-types. For the astrocyte assays, cells were plated on either 24- or 96-well plates at a density of 50,000 cells per well. For the HEK assays, cells were plated on coated 96-well plates at a density of 80,000 cells/well. Assays were conducted in duplicate at room temperature in assay buffer consisting of: NaCl: 150 mM, KCl: 2 mM; MgCl2: 1 mM; CaCl2: 1 mM; HEPES: Tris buffer: 10 mM, pH7.4. To assess the sodium-dependence of transport, NaCl was replaced in the assay buffer by equimolar choline chloride. Following aspiration of growth medium and 2 washes with assay buffer, cells were incubated with [^3H]L- or D-serine at a final concentration of 1 μM for 5 min (astrocytes) or 1 min (HEK cells), after which the incubation medium was aspirated and the cells washed twice with ice-cold assay buffer. Cells containing radiolabel were solubilized in 100 μl of 1% Triton-X100 and an aliquot counted in a beta counter. IC50 values were determined over a range of at least 6 concentrations and derived from curve-fitting algorithms available in GraphPad Prism 4. Table 2 reflects the IC50 values for the inhibition of [^3H]L-serine transport into astrocytes and HEK cells expressing recombinant human ASCT1 or ASCT2. […]

human ASCT2 [3] = target: T2, human ASCT2 (Homo sapiens, UniProt Q15758); assay: [3H]L-serine transport into HEK cells expressing recombinant human ASCT2; assay type: cell-based; settings: inhibition of [3H]L-serine transport, HEK cells with human ASCT2, n of 3-4; read-out: HEK1A5 ASCT2 IC50
T2 construct: expressed in transfected cells; host or cells: HEK293 cells stably expressing ASCT2
T2 sequence (Q15758 1-541): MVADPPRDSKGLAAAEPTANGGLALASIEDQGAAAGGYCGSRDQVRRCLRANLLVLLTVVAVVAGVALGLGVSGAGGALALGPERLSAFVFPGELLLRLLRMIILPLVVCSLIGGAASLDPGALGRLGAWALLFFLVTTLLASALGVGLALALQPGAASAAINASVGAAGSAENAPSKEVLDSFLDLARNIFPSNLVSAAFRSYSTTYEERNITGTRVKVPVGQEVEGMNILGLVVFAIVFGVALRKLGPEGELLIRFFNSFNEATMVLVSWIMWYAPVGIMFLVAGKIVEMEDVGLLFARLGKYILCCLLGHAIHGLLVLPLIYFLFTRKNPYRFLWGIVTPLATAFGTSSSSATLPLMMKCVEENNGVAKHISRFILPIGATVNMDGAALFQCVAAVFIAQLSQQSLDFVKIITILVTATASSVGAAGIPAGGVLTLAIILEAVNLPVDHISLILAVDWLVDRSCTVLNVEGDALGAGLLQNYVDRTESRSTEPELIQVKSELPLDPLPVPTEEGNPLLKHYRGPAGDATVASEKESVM
Experimental: as §3

human ASCT2 [4] = target: T2, human ASCT2; assay: Whole cell patch-clamp transport currents in HEK cells expressing human ASCT2; assay type: cell-based; settings: for effect on substrate-evoked inward current: HEK ASCT2, with 0.3 mM L-serine; for current in the absence of applied substrate: HEK ASCT2, without L-serine
Experimental: as §1, §2

ASCT1/2 = assay: [3H]L-serine transport into primary rat hippocampal astrocytes; assay type: cell-based; settings: for IC50: inhibition of [3H]L-serine transport, rat astrocytes, 6-12 point curves, n of 3-4, read-out: Astro ASCT1/2 IC50; for inhibition of radiolabelled substrate transport: rat brain astrocytes in culture
Experimental: Cell-based assays: the transport of [^3H]L- or D-serine was measured in primary cultures of rat hippocampal astrocytes or in human embryonic kidney (HEK) cells expressing ASCT transporter sub-types. For the astrocyte assays, cells were plated on either 24- or 96-well plates at a density of 50,000 cells per well. For the HEK assays, cells were plated on coated 96-well plates at a density of 80,000 cells/well. Assays were conducted in duplicate at room temperature in assay buffer consisting of: NaCl: 150 mM, KCl: 2 mM; MgCl2: 1 mM; CaCl2: 1 mM; HEPES: Tris buffer: 10 mM, pH7.4. To assess the sodium-dependence of transport, NaCl was replaced in the assay buffer by equimolar choline chloride. Following aspiration of growth medium and 2 washes with assay buffer, cells were incubated with [^3H]L- or D-serine at a final concentration of 1 μM for 5 min (astrocytes) or 1 min (HEK cells), after which the incubation medium was aspirated and the cells washed twice with ice-cold assay buffer. Cells containing radiolabel were solubilized in 100 μl of 1% Triton-X100 and an aliquot counted in a beta counter. IC50 values were determined over a range of at least 6 concentrations and derived from curve-fitting algorithms available in GraphPad Prism 4. Table 2 reflects the IC50 values for the inhibition of [^3H]L-serine transport into astrocytes and HEK cells expressing recombinant human ASCT1 or ASCT2. Values are IC50's in μM from 6-12 point inhibition curves, with an n of 3-4.

[5] = tested on: LTP in primary visual cortex; assay: Visual cortex slice physiology: long-term potentiation (LTP); parameters: species or system rat
Experimental: Following decapitation of the rat, the brain was rapidly removed and immersed in ice-cold artificial cerebrospinal fluid (ACSF) containing 124 mM NaCl, 3 mM KCl, 1.25 mM KH2PO4, 3.4 mM CaCl2, 2.5 mM MgSO4, 26 mM NaHCO3, and 10 mM D-glucose. A block of visual cortex was created by removing the frontal ⅔ portion of the brain and the cerebellum. Coronal visual cortex slices of 375 μm were prepared from adult Sprague Dawley (SD) rats using a vibratome (VT 1000 S; Leica). The slices were maintained in an interface recording chamber perfused with preheated ACSF. Slices were continuously perfused with this solution at a rate of 1.00-1.50 ml/min while the surface of the slices was exposed to warm, humidified 95% O2/5% CO2 and maintained at 31±1° C. Visual cortex slices were allowed to recover for 1 hr before recording began. A single stimulating and recording electrode were placed in layer IV and III, respectively, to generate and record a field excitatory postsynaptic potentials (fEPSPs). […] This was repeated 2 additional times with a 1 minute intertrain interval, and the level of LTP was recorded for at least 30 min. Changes in amplitude of the synaptic response were used to measure the extent of LTP because it was determined to be the more consistent parameter than the slope of the response. […]

SMILES | effect on substrate-evoked inward current (human ASCT1 [1]) | current in the absence of applied substrate (human ASCT1 [1]) | IC50 (human ASCT1 [2]) [µM] | IC50 (human ASCT2 [3]) [µM] | effect on substrate-evoked inward current (human ASCT2 [4]) | current in the absence of applied substrate (human ASCT2 [4]) | IC50 (ASCT1/2) [µM] | inhibition of radiolabelled substrate transport (ASCT1/2) | effect on LTP in rat visual cortex slice ([5]; 0.1 and 0.3 μM) | concentration that enhanced LTP in visual cortex ([5]; rat visual cortex slice, as low as) [µM]
O=C(O)[C@@H]1NC[C@H](OCc2cccc(Oc3ccccc3)c2)[C@H]1O (stereo in doubt) [(2R,3S,4S)-3-hydroxy-4-[(3-phenoxybenzyl)oxy]pyrrolidine-2-carboxylic acid] | inhibited the substrate-evoked inward current | evoked an outward current | 46.4 | 65.2 | inhibited the substrate-evoked inward current | evoked an outward current | 10.7 | completely inhibited |  | 
O=C(O)[C@@H]1NC[C@H](OCc2ccc(-c3ccccc3)cc2)[C@H]1O (stereo in doubt) [(2R,3S,4S)-4-(biphenyl-4-ylmethoxy)-3-hydroxypyrrolidine-2-carboxylic acid] | inhibited the substrate-evoked inward current | evoked an outward current | 3.6 | 2.8 | inhibited the substrate-evoked inward current | evoked an outward current | 0.6 | completely inhibited | dose-dependently facilitates long-term potentiation (LTP) | ≤ 0.1
